# Values quoted from earlier work in patent US20150313903A1, “METHODS OF TREATING COGNITIVE IMPAIRMENT ASSOCIATED WITH NEURODEGENERATIVE DISORDERS” (Ovid Therapeutics Inc., priority 2014, published 2015).
# Read-outs that look alike come from different tables or passages of the source.
# How the values were obtained:
# [1] = in vivo
# [2] = in vivo; remark: listed apart in the source
# [3] = subjects taking ritanserin
# [4] = in vivo; remark: listed apart in the source
# dopamine transporter = target: T1, dopamine transporter (Homo sapiens, UniProt Q01959); conditions: within the prefrontal cortex (PFC)
# T1 construct: host or cells: prefrontal cortex
# [5] = classical conditioning model
# [6] = several trials, monotherapy
# [7] = alcoholics
# [8] = MPTP model of parkinsonism in mice
# serotonin-S2 receptor = serotonin-S2 receptor (Rattus norvegicus, UniProt P14842); conditions: in vivo; dose as low as
# [9] = generalized anxiety disorders, versus control subjects
# [10] = not given; remark: listed apart in the source
# [11] = direct injection into the hippocampus, rats
# BDNF = conditions: in vivo
# [12] = design: key: *: shown to have a beneficial effect in ALS; conditions: in vivo
# [13] = Parkinson's patients, later studies
# [14] = open pilot trial, parkinsonian patients
# [15] = acute dose 10 mg, healthy volunteers
# Chain of serotonin-S2 receptor (P14842 whole entry): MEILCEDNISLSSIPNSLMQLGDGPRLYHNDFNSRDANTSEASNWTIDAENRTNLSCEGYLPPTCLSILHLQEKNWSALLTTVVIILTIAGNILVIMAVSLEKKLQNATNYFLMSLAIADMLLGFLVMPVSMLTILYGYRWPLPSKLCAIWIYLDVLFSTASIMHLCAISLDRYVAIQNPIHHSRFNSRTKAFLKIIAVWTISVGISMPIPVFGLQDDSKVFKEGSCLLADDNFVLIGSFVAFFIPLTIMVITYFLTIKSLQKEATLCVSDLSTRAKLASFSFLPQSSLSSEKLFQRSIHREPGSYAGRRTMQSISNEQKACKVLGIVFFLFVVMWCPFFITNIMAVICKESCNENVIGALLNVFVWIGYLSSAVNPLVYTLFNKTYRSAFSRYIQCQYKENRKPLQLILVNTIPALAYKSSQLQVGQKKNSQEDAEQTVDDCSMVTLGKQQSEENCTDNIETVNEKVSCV
# T1 sequence (Q01959 whole entry): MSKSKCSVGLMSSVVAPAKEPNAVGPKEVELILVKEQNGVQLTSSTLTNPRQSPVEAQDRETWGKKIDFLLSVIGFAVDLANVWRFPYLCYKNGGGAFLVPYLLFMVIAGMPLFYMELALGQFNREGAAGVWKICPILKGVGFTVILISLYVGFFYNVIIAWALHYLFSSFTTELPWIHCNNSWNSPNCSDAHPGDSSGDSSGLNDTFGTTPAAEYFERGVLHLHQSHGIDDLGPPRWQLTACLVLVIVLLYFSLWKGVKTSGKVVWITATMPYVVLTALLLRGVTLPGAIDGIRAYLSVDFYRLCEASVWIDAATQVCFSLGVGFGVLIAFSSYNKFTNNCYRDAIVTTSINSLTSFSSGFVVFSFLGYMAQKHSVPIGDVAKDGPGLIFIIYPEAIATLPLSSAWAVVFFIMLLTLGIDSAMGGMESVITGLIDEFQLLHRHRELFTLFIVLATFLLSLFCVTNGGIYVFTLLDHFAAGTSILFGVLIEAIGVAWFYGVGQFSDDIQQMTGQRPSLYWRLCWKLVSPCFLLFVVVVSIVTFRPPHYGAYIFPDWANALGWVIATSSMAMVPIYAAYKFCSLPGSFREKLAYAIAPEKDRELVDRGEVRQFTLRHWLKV
compound,measurement,setting,value
CC(C)COc1ccc(CNC(=O)N(Cc2ccc(F)cc2)C2CCN(C)CC2)cc1 [Pimavanserin],efficacy in psychosis associated with Parkinson's disease,[1],effective
same,reversing PCP-induced deficits,[2],no activity
"Cc1nc2sccn2c(=O)c1CCN1CCC(=C(c2ccc(F)cc2)c2ccc(F)cc2)CC1 [ritanserin, 6-[2-[4-[bis(4-fluorophenyl)methylene]-1-piperidinyl]ethyl]-7-methyl-5H-thiazolo[3,2-a]pyrimidin-5-one]",bradykinesia,[13],reduced bradykinesia
same,gait,[13],improved gait
same,L-Dopa-induced dyskinesia,[14],reduced L-Dopa-induced dyskinesia
same,"tremor, rigidity, or akinesia",[14],no significant modifying
same,weight gain,[3],Weight gain is not observed
same,blocking the physiological effects of LSD,[4],some activity
same,inhibition of the dopamine transporter,dopamine transporter,selectively inhibit the dopamine transporter
same,effect on learning,[5],impair learning
same,efficacy in schizophrenia,[6],did show efficacy
same,outcome of Phase 3 trial for alcohol abstinence,[7],failed a Phase 3 trial
same,motor deficit,[8],reduced motor deficit
same,dose giving 50% serotonin-S2 receptor occupation,serotonin-S2 receptor,0.08 m/kg
same,self-rating of treated subjects,[9],"calmer, more relaxed, and more energetic than control subjects"
same,effect on REM sleep,[10]; [15],decreased REM sleep
same,effect on Stage 2 sleep,[10]; [15],decreased Stage 2 sleep
same,effect on slow-wave sleep,[10]; [15],increased slow-wave sleep
same,"increase in SWS during the night, on average",[10]; administered just before bedtime,about 52 minutes
same,psychomotor sedation during the day,[10]; after morning administration,no psychomotor sedation
same,tolerance to the sleep-enhancing effects,[10]; after repeated administration,no tolerance
same,SWS duration,[10]; at clinical doses,can double SWS duration
same,average increase in slow-wave sleep,[10]; dose 1 mg,53 min
same,average increase in slow-wave sleep,[10]; dose 3 mg,82 min
same,average increase in slow-wave sleep,[10]; dose 10 mg,101 min
same,average increase in slow-wave sleep,[10]; dose 30 mg,136.5 min
same,"increase in SWS during the night, on average",[10]; morning administration,about 94 minutes
same,effect on learning,[11],inhibit learning
same,expression of brain (hippocampal) BDNF,BDNF,increases the expression
"Nc1nc2ccc(OC(F)(F)F)cc2s1 [Riluzole, 2-amino-6-(trifluoromethoxy) benzothiazole]",beneficial effect in ALS (asterisk mark),[12],*Riluzole
